Reference: patent publication US12458024B2, “Compound combination with superior herbicidal activity” (priority 2020, dated 2025)

Columns and labels:
Type in all cases: in vivo
[1] = tested on: Polygonum convolvulus; assay: Field trial herbicidal action, indaziflam + pelargonic acid, Polygonum convolvulus
Method: (§1) The following active compounds were tested: • Product PeAc contained 249.96 g a.i./L of pelargonic acid in an EC formulation • Product IAF contained 200 g a.i./L of indaziflam formulated as SC formulation • Product TBA contained 500 g a.i./L of terbutylazine formulated as SC formulation 2. Biological Trials Herbicidal Action (Field Trials)
(§2) The growth stages of the different weed or crop plant species are indicated according to the BBCH monograph “Growth stages of mono- and dicotyledonous plants”, 2nd edition, 2001, ed. Uwe Meier, Federal Biological Research Centre for Agriculture and Forestry (Biologische Bundesanstalt für Land und Forstwirtschaft). The respective BBCH stages are mentioned in brackets for the different weed or crop plant species and indicate the BBCH stage for the majority of the respective weed or crop plant species.
(§3) The dose rates of herbicidal ingredients used in each case are indicated for the respective active ingredient in brackets and refer to the amount of active ingredient per hectare (g a.i./ha).
(§4) • A is the efficacy in % when active compound A is applied at an application rate of a g a.i./ha, • B is the efficacy in % when active compound B is applied at an application rate of b g a.i./ha), • EC is the efficacy in % when the active compounds A and B are applied at application rates of a+b g a.i./ha), respectively, and Then EC=A+B−([…]/100)

[2] = tested on: Chenopodium album; assay: Field trial herbicidal action, indaziflam + pelargonic acid, Chenopodium album
Method: as §1, §2, §3, §4

[3] = tested on: Abutilon theophrasti; assay: Field trial herbicidal action, indaziflam + pelargonic acid, Abutilon theophrasti
Method: as §1, §2, §3, §4

[4] = tested on: Setaria viridis; assay: Field trial herbicidal action, indaziflam + pelargonic acid, Setaria viridis
Method: as §1, §2, §3, §4

[5] = tested on: Echinocloa crus-galli; assay: Field trial herbicidal action, indaziflam + pelargonic acid, Echinocloa crus-galli
Method: as §1, §2, §3, §4

[6] = tested on: Panicum maximum; assay: Field trial herbicidal action, indaziflam + pelargonic acid, Panicum maximum
Method: as §1, §2, §3, §4

[7] = tested on: Zea mays; assay: Field trial herbicidal action, indaziflam + pelargonic acid, Zea mays
Method: as §1, §2, §3, §4

[8] = tested on: Abuthilon theophrasti; assay: Field trial herbicidal action, terbuthylazine + pelargonic acid, Abuthilon theophrasti
Method: as §1, §2, §3, §4

[9] = tested on: Amaranthus retroflexus; assay: Field trial herbicidal action, terbuthylazine + pelargonic acid, Amaranthus retroflexus
Method: as §1, §2, §3, §4

[10] = tested on: Chenopodium album; assay: Field trial herbicidal action, terbuthylazine + pelargonic acid, Chenopodium album
Method: as §1, §2, §3, §4

[11] = tested on: Echinocloa crus-galli; assay: Field trial herbicidal action, terbuthylazine + pelargonic acid, Echinocloa crus-galli
Method: as §1, §2, §3, §4

## CCCCCCCCC(=O)O [Pelargonic acid, nonanoic acid]
[1]; 6000 g a.i./ha
  Herbicidal Activity 13 DAT [%] (EA): 40%
[2]; 6000 g a.i./ha
  Herbicidal Activity 13 DAT [%] (EA): 40%
[2]; 16000 g a.i./ha
  Herbicidal Activity 13 DAT [%] (EA): 80%
[3]; 6000 g a.i./ha
  Herbicidal Activity 13 DAT [%] (EA): 45%
[3]; 16000 g a.i./ha
  Herbicidal Activity 13 DAT [%] (EA): 88%
[4]; 6000 g a.i./ha
  Herbicidal Activity 13 DAT [%] (EA): 10%
[4]; 16000 g a.i./ha
  Herbicidal Activity 13 DAT [%] (EA): 45%
[5]; 6000 g a.i./ha
  Herbicidal Activity 13 DAT [%] (EA): 0%
[5]; 16000 g a.i./ha
  Herbicidal Activity 13 DAT [%] (EA): 25%
[6]; 6000 g a.i./ha
  Herbicidal Activity 13 DAT [%] (EA): 20%
[6]; 16000 g a.i./ha
  Herbicidal Activity 13 DAT [%] (EA): 50%
[7]; 6000 g a.i./ha
  Herbicidal Activity 13 DAT [%] (EA): 38%
[7]; 16000 g a.i./ha
  Herbicidal Activity 13 DAT [%] (EA): 65%
[8]; 6000 g a.i./ha
  Herbicidal Activity 14 DAT [%] (EA): 30%
[8]; 12000 g a.i./ha
  Herbicidal Activity 14 DAT [%] (EA): 57%
[8]; 16000 g a.i./ha
  Herbicidal Activity 14 DAT [%] (EA): 57%
[9]; 6000 g a.i./ha
  Herbicidal Activity 14 DAT [%] (EA): 13%
[9]; 12000 g a.i./ha
  Herbicidal Activity 14 DAT [%] (EA): 90%
[9]; 16000 g a.i./ha
  Herbicidal Activity 14 DAT [%] (EA): 93%
[10]; 6000 g a.i./ha
  Herbicidal Activity 14 DAT [%] (EA): 20%
[10]; 12000 g a.i./ha
  Herbicidal Activity 14 DAT [%] (EA): 88%
[10]; 16000 g a.i./ha
  Herbicidal Activity 14 DAT [%] (EA): 97%
[11]; 6000 g a.i./ha
  Herbicidal Activity 14 DAT [%] (EA): 13%
[11]; 12000 g a.i./ha
  Herbicidal Activity 14 DAT [%] (EA): 30%
[11]; 16000 g a.i./ha
  Herbicidal Activity 14 DAT [%] (EA): 33%

## CCNc1nc(Cl)nc(NC(C)(C)C)n1 [Terbuthylazin, terbuthylazine]
[8]; 125 g a.i./ha
  Herbicidal Activity 14 DAT [%] (EA): 0%
[8]; 250 g a.i./ha
  Herbicidal Activity 14 DAT [%] (EA): 7%
[8]; 500 g a.i./ha
  Herbicidal Activity 14 DAT [%] (EA): 7%
[8]; 750 g a.i./ha
  Herbicidal Activity 14 DAT [%] (EA): 20%
[9]; 125 g a.i./ha
  Herbicidal Activity 14 DAT [%] (EA): 0%
[9]; 250 g a.i./ha
  Herbicidal Activity 14 DAT [%] (EA): 7%
[9]; 500 g a.i./ha
  Herbicidal Activity 14 DAT [%] (EA): 47%
[9]; 750 g a.i./ha
  Herbicidal Activity 14 DAT [%] (EA): 63%
[10]; 125 g a.i./ha
  Herbicidal Activity 14 DAT [%] (EA): 0%
[10]; 250 g a.i./ha
  Herbicidal Activity 14 DAT [%] (EA): 13%
[10]; 500 g a.i./ha
  Herbicidal Activity 14 DAT [%] (EA): 67%
[10]; 750 g a.i./ha
  Herbicidal Activity 14 DAT [%] (EA): 78%
[11]; 125 g a.i./ha
  Herbicidal Activity 14 DAT [%] (EA): 0%
[11]; 250 g a.i./ha
  Herbicidal Activity 14 DAT [%] (EA): 0%
[11]; 500 g a.i./ha
  Herbicidal Activity 14 DAT [%] (EA): 0%
[11]; 750 g a.i./ha
  Herbicidal Activity 14 DAT [%] (EA): 0%

## Cc1ccc2c(c1)C(Nc1nc(N)nc(C(C)F)n1)C(C)C2 (mixture of isomers) [Indaziflam, N2-[(1R,2S)-2,3-dihydro-2,6-dimethyl-1H-inden-1-yl]-6-[(1RS)-1-fluoroethyl]-1,3,5-triazine-2,4-diamine]
[1]; 50 g a.i./ha
  Herbicidal Activity 13 DAT [%] (EA): 55%
[2]; 50 g a.i./ha
  Herbicidal Activity 13 DAT [%] (EA): 20%
[3]; 10 g a.i./ha
  Herbicidal Activity 13 DAT [%] (EA): 60%
[3]; 50 g a.i./ha
  Herbicidal Activity 13 DAT [%] (EA): 92%
[4]; 50 g a.i./ha
  Herbicidal Activity 13 DAT [%] (EA): 0%
[5]; 50 g a.i./ha
  Herbicidal Activity 13 DAT [%] (EA): 0%
[6]; 50 g a.i./ha
  Herbicidal Activity 13 DAT [%] (EA): 5%
[7]; 50 g a.i./ha
  Herbicidal Activity 13 DAT [%] (EA): 10%
